Where two headings read alike, the source gives them in different places.
Experiments:
Type in all cases: cell-based
[1] = test system: Primary human epidermal keratinocytes, HeKa; experiment: HeKa cytokine release (IL-8) assay
Description: HeKa Cytokine Release (IL-8) Assay:
Primary human epidermal keratinocytes, HeKa, were seeded (10.000 cells/well) in 96-well plates the day before the assay. Test compounds were diluted in DMSO (dimethyl sulfoxide) and further diluted in assay medium and pipetted into wells of 96 well-plates containing HeKa cells. The plates were incubated for 6 h at 37° C. in humidified air with 5% CO2. Plates were centrifuged briefly to spin down cells at 4° C., the supernatant was removed and analysed by Meso Scale Discovery (MSD) 4-spot cytokine assay (Pro-inflammatory II Ultra Sensitive kit, MSD, MD, USA). The MSD assay employs a sandwich immunoassay format where capture antibodies are coated in a patterned array on the bottom of the wells of a 4-Spot-Multi-MSD plate. Standard samples were incubated in the MULTI-SPOT plates as well, and the cytokine (IL-8) binds to its corresponding capture antibody spot. The cytokine level was quantitated on a SECTOR™ Imager using a cytokine-specific Detection Antibody labelled with MSD SULFO-TAG™ reagent.
(§1) Test compound titration curves were fitted to a four-parameter sigmoidal curve after normalizing the effect of the test compound to the effect of the positive control (1.5×10^−7 M PEP0005). Rel EC50 denotes the concentration of test compound producing an effect that is midway between the fitted top and bottom.

[2] = test system: PMN's (polymorphonuclear leukocytes); experiment: Neutrophil oxidative burst assay; conditions: Leukocyte, 40 min, read-out: Neutrophil oxidative burst Rel EC50 range
Description: Neutrophil Oxidative Burst Assay:
PMN's (polymorphonuclear leukocytes) were isolated and purified from fresh buffy coats by sequential sedimentation, density centrifugation and lysis of contaminating erythrocytes. Buffy coats were incubated with 2% methocel for 30-45 min to differentially sediment red blood cells. The leukocyte-rich supernatant was transferred to lymphoprep tubes to remove mononuclear cells by density centrifugation (400×g, 30 min). The pellet was resuspended and any remaining erythrocytes lysed using 0.2% NaCl for 30 sec before restoring isotonicity by the addition of 1.2% NaCl. This step was repeated until the cell pellet appears relatively free of red blood cells. Cells were resuspended in DPBS (Dulbecco's Phosphate Buffered Saline) (w.o. Ca^2+, Mg^2+) and the concentration adjusted to 1.4×10^6 cells/ml in HBSS (Hanks Balanced Salt solution) (w Ca^2+, Mg^2+) containing 0.1% BSA (Bovine Serum Albumin) and 5 mM glucose just prior to assay initiation. Titrated reference and test compounds were pre-mixed with HE (Hydroethidine) (10 μM final assay concentration) before addition to 96-well plates containing 2.5×10^5 cells. Following 40 min incubation at RT, changes in the respiratory burst was estimated by measuring fluorescence at 579 nm (excitation: 485 nm) using an Envision plate reader.
as §1, with “(5×10^−7” for “(1.5×10^−7”, “bottom. Abs EC50 is the concentration of test compound that provokes a response corresponding to 50% of the maximal effect associated with the positive control (5×10^−7 M PEP0005).” for “bottom.”

[3] = test system: HeLa cells; experiment: Necrosis assay; conditions: Homo sapiens, 0.5 h, read-out: HeLa Necrosis EC50 range
Description: HeLa cells (ATCC CCL-002) were grown in minimal essential medium (Invitrogen catalog no. 42360) containing 10% fetal bovine serum, 100 IU/ml penicillin and 100 μg/ml streptomycin. 4,000-6,000 cells were seeded into 96-well black ViewPlates-plates, clear bottom, (Perkin Elmer) in 100 μl medium and incubated overnight. Compounds were dissolved and pre-diluted in DMSO in 96-well polypropylene plates (Greiner) in a concentration range of 15 μM to 600 μM. At the time of the experiment cell plates were placed on heating blocks at 37° C., medium was removed and 40 μl fresh, pre-warmed medium was added per well. Cells were incubated for 15 min before addition of compounds. In parallel, 3 μl of compounds were diluted with 197 μl growth medium on a Tecan freedom-EVO pipetting station using 250 μl/s pipetting speed, in order to ensure effective mixing of the highly concentrated compound solutions with the aqueous phase. These pre-dilution plates were then equilibrated on heating blocks at 37° C. for 10 min. 80 μl pre-diluted compound were transferred manually to the corresponding wells containing HeLa cells yielding compound concentrations of 10 μM to 400 μM. Control conditions were 1% DMSO in growth medium (100% viability) and 400 μM ingenol mebutate in growth medium (0% viability). Plates were incubated on the heating blocks at 37° C. for 30 min. At the end of the incubation 10 μl PrestoBlue reagent (Invitrogen) were added to each well, plates were sealed with black seal, followed by incubation at 37° C. for 10 min with gentle shaking (150 rpm). Subsequently, plates were placed at room temperature for 20-30 min. Plates were read immediately after on an Envision Fluorescence reader (Perkin Elmer) with excitation at 535 nm and emission at 630 nm. Test compound titration curves were fitted to a four-parameter sigmoidal curve after normalizing the effect of the test compound to the effect of the positive control (4 10^−4 M PEP0005/ingenol mebutate). AbsEC50 denotes the concentration of test compound producing 50% effect.

[4] = HEKa, 6 h, read-out: HeKa cytokine release (IL-8) Rel EC50 range
[5] = HeKa cells, 6 h at 37° C., MSD IL-8, normalized to 1.5×10^−7 M PEP0005, read-out: HeKa cytokine release (IL-8) Rel EC50 range
[6] = HeLa cells, 30 min at 37° C., PrestoBlue, AbsEC50, normalized to 4 10^−4 M PEP0005/ingenol mebutate
[7] = PMNs, 40 min at RT, hydroethidine fluorescence, normalized to 5×10^−7 M PEP0005

Compound | EC50 [1, 4] [nM] | EC50 [2] [nM] | EC50 [1, 5] [nM] | EC50 [3, 6] [nM] | EC50 [2, 7] [nM] | EC50 ([3]; HeLa) [nM]
CC[C@@H](C)C(=O)O[C@H]1C(C)=C[C@]23C(=O)[C@@H](C=C(CO)[C@@H](O)[C@]12O)[C@H]1[C@@H](C[C@H]3C)C1(C)C [Compound 110, Ingenol 3-(2R-methyl-butanoate)] | 20 to 100 | < 20 |  |  |  | 
C/C=C(/C)C(=O)O[C@H]1C(C)=C[C@]23C(=O)[C@@H](C=C(CO)[C@@H](O)[C@]12O)[C@H]1[C@@H](C[C@H]3C)C1(C)C [PEP005, Ingenol-3-angelate, reference compound] |  |  | < 20 | 150000 to 350000 | < 20 | 
CCC(C)C(=O)O[C@H]1C(C)=C[C@]23C(=O)[C@@H](C=C(CO)[C@@H](O)[C@]12O)[C@H]1[C@@H](C[C@H]3C)C1(C)C (stereo partly shown) [Compound 107a and Compound 107b, Ingenol 3-(RS-2-methyl-butanoate)] | 20 to 100 | < 20 |  |  |  | 
CC1=C[C@]23C(=O)[C@@H](C=C(CO)[C@@H](O)[C@]2(O)[C@H]1OC(=O)C(C)C)[C@H]1[C@@H](C[C@H]3C)C1(C)C [Compound 105, Ingenol 3-(2-methyl-propanoate)] | 20 to 100 | < 20 |  |  |  | 
C=C(C)C(=O)O[C@H]1C(C)=C[C@]23C(=O)[C@@H](C=C(CO)[C@@H](O)[C@]12O)[C@H]1[C@@H](C[C@H]3C)C1(C)C [Compound 101, Ingenol 3-(2-methyl-acrylate)] | > 100 | < 20 |  |  |  | 150000 to 350000
COC(=O)/C=C/C(=O)O[C@H]1C(C)=C[C@]23C(=O)[C@@H](C=C(CO)[C@@H](O)[C@]12O)[C@H]1[C@@H](C[C@H]3C)C1(C)C [Compound 113, Ingenol 3-(2Z-(methoxycarbonyl))-acrylate] |  | > 100 |  |  |  | 
C/C=C(/C(=O)O[C@H]1C(C)=C[C@]23C(=O)[C@@H](C=C(CO)[C@@H](O)[C@]12O)[C@H]1[C@@H](C[C@H]3C)C1(C)C)c1ccccc1 [Compound 118, Ingenol 3-((E)-2-phenylbut-2-enoate)] | < 20 | < 20 |  |  |  | < 150000
CC1=C[C@]23C(=O)[C@@H](C=C(CO)[C@@H](O)[C@]2(O)[C@H]1OC(=O)C(C#N)=C1CCCCC1)[C@H]1[C@@H](C[C@H]3C)C1(C)C [Compound 120, Ingenol 3-(2-cyano-2-cyclohexylidene-acetate)] | > 100 | < 20 |  |  |  | 
CC1=C[C@]23C(=O)[C@@H](C=C(CO)[C@@H](O)[C@]2(O)[C@H]1OC(=O)/C(C)=C\c1ccc(C)cc1)[C@H]1[C@@H](C[C@H]3C)C1(C)C [Compound 117, Ingenol 3-((Z)-2-methyl-3-(p-tolyl)prop-2-enoate)] | < 20 | < 20 |  |  |  | < 150000
CC1=C[C@]23C(=O)[C@@H](C=C(CO)[C@@H](O)[C@]2(O)[C@H]1OC(=O)C(c1ccccc1)c1ccccc1)[C@H]1[C@@H](C[C@H]3C)C1(C)C [Compound 119, Ingenol 3-(2,2-diphenylacetate)] | < 20 | < 20 |  |  |  | < 150000
CO/N=C(/C(=O)O[C@H]1C(C)=C[C@]23C(=O)[C@@H](C=C(CO)[C@@H](O)[C@]12O)[C@H]1[C@@H](C[C@H]3C)C1(C)C)c1ccccc1 [Compound 116, Ingenol 3-((2E)-2-methoxyimino-2-phenyl-acetate)] | 20 to 100 | 20 to 100 |  |  |  | 
C=C(CC)C(=O)O[C@H]1C(C)=C[C@]23C(=O)[C@@H](C=C(CO)[C@@H](O)[C@]12O)[C@H]1[C@@H](C[C@H]3C)C1(C)C [Compound 104, Ingenol 3-(2-methylene-butyrate)] | 20 to 100 | < 20 |  |  |  | 150000 to 350000
CC1=C[C@]23C(=O)[C@@H](C=C(CO)[C@@H](O)[C@]2(O)[C@H]1OC(=O)C(C)=C(C)C)[C@H]1[C@@H](C[C@H]3C)C1(C)C [Compound 103, Ingenol 3-(2,3-dimethyl-butenoate)] | < 20 | < 20 |  |  |  | 150000 to 350000
CC1=C[C@]23C(=O)[C@@H](C=C(CO)[C@@H](O)[C@]2(O)[C@H]1OC(=O)C(=O)N(C)c1ccccc1)[C@H]1[C@@H](C[C@H]3C)C1(C)C [Compound 121, Ingenol 3-(2-(methyl(phenyl)amino)-2-oxo-acetate)] | > 100 | 20 to 100 |  |  |  | < 350000
CC1=C[C@]23C(=O)[C@@H](C=C(CO)[C@@H](O)[C@]2(O)[C@H]1OC(=O)CC(C)(C)C)[C@H]1[C@@H](C[C@H]3C)C1(C)C [Compound 108, Ingenol 3-(3,3-dimethyl-butanoate)] | 20 to 100 | < 20 |  |  |  | 150000 to 350000
CC1=C[C@]23C(=O)[C@@H](C=C(CO)[C@@H](O)[C@]2(O)[C@H]1OC(=O)Cc1ccccc1)[C@H]1[C@@H](C[C@H]3C)C1(C)C [Compound 112, Ingenol 3-(phenyl-acetate)] |  |  | > 100 | 150000 to 350000 | < 20 | 
CO/N=C(\C(=O)O[C@H]1C(C)=C[C@]23C(=O)[C@@H](C=C(CO)[C@@H](O)[C@]12O)[C@H]1[C@@H](C[C@H]3C)C1(C)C)c1ccccc1 [Compound 115, Ingenol 3-((2Z)-2-methoxyimino-2-phenyl-acetate)] | < 20 | 20 to 100 |  |  |  | < 150000
CC(C)=CC(=O)O[C@H]1C(C)=C[C@]23C(=O)[C@@H](C=C(CO)[C@@H](O)[C@]12O)[C@H]1[C@@H](C[C@H]3C)C1(C)C [Compound 102, Ingenol 3-(3-methyl-butenoate)] | 20 to 100 | < 20 |  |  |  | 150000 to 350000
CC1=C[C@]23C(=O)[C@@H](C=C(CO)[C@@H](O)[C@]2(O)[C@H]1OC(=O)CC(C)C)[C@H]1[C@@H](C[C@H]3C)C1(C)C [Compound 106, Ingenol 3-(3-methyl-butanoate)] | 20 to 100 | < 20 |  |  |  | 
CC1=C[C@]23C(=O)[C@@H](C=C(CO)[C@@H](O)[C@]2(O)[C@H]1OC(=O)C(C)C1CCCCC1)[C@H]1[C@@H](C[C@H]3C)C1(C)C (stereo partly shown) [Compound 114, Ingenol 3-(2-cyclohexylpropanoate)] | < 20 | < 20 |  |  |  | 150000 to 350000
